In US20210078985A1, “COMPOUND, PREPARATION METHOD THEREFOR, AND USE THEREOF” (MEDSPRING INTERNATIONAL LIMITED, priority 2018, published 2021):
≈ marks a conversion by molar mass, not a printed value. Where two headings read alike, the source gives them in different places.

Key:
Caco-2 cells = assay: In vitro membrane permeability test (Caco-2 monolayer)
Protocol: Caco-2 cell model is a human colonic adenocarcinoma cell line having a structure and function similar to differentiated intestinal epithelial cells. It has microvilli and other structures, and contains enzyme system related to intestinal brush border epithelium.
The cryopreserved Caco-2 cells were thawed in 37° C. water bath. After resuscitation, the cells were added into DMEM medium containing 10% FBS, and cultured in an incubator with 37° C., 5% CO2 and 90% relative humidity. The culture medium was changed every other day. After 1-2 days of growth, the cells were digested with 0.25% trypsin-EDTA (0.2%) mixed digestive solution at 37° C. and passaged in a certain proportion. The cell generation used in the experiments was 40-60 passages.
When cells reached 80% confluency, they were digested and suspended in complete medium and seeded on Millicell plate at 1×10^6 cells·ml^−1. After that, the culture medium was changed once every 2 days and after 1 week, was changed once every 1 day. After 5 days of culture, the resistance value reaches plateau (>200 Ω·cm^2), which can be then used for membrane permeability experiment.
The compound was diluted to 5 μmol·L^−1 by HBSS. Before experiments, the culture medium in each well was discarded, washed twice with HBSS solution at 37° C., and then incubated in a 37° C. incubator. […] The emission wavelength was set at 430 nm and the excitation wavelength was set at 530 nm.
Before experiments, Millicell inoculated with cells was soaked in HBSS solution at 37° C. for an appropriate time period, and the Millicell was washed slightly to remove the attachment on the cell surface. The permeability from cavity surface to basal surface: 0.35 ml HBSS solution containing drug was added to the top side (AP) and 1.2 ml blank HBSS solution was added to the bottom side (BL). The Millicell was incubated while shaking at 50 r·min^−1 at 37° C., a 50 μL sample was taken in the lower layer at 0, 30, 90 and 120 min, and a same volume of blank HBSS solution as added back. 3 holes were repeated for each concentration. 50 μL internal standard solution and 350 μL ethyl acetate were added to the sample, which was shaken and mixed, centrifuged at 12000 rpm for 5 min. 300 μL of supernatant was taken out, dried by evaporation, and re-dissolved in 50 μL acetonitrile. 10 μL sample was taken out for testing. For the permeability from the base surface to the cavity surface, the drug was added to the bottom side (BL), and the blank HBSS solution was added to the top side (AP). The following steps are the same as the permeability test operation from the cavity surface to the base surface.
The apparent permeability coefficient (Papp) of drugs reflects the ability of drugs to pass through monolayer cells and the speed and degree of drug absorption. It can be calculated by the following formula: […]
Herein, ΔQ is the amount of drug penetration during the time period of Δt, A is the cell surface area, which is the area of supporting membrane (0.6 cm^2) in this model, and Co is the initial concentration. The unit of Papp is usually expressed in cm/h (cm·h^−1) or cm/s (cm·s^−1).
LC/MS was used for testing. The standard curve ([…]-10000 nM) was used to quantify the concentration of each sample.

[1] = molecular target: T1, CHO membranes expressing CCR4 (Homo sapiens, UniProt P51679); assay: In vitro CCR4 antagonistic activity, competitive [35S]-GTPγS test; assay type: biochemical
T1 construct: expressed in transfected cells; host or cells: CHO cell membranes
T1 sequence (P51679 1-360): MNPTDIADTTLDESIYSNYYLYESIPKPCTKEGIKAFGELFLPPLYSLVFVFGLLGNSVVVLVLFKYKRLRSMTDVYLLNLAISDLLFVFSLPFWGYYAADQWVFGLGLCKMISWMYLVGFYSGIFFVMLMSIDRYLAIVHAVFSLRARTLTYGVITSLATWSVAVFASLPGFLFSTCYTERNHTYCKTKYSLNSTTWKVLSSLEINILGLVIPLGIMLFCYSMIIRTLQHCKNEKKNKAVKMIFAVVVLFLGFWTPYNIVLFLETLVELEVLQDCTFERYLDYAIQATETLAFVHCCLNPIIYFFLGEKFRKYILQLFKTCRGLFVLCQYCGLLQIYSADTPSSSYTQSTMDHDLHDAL
Protocol: The potency of antagonists was tested by a competitive test of [35S]-GTPγS. Briefly, CHO membranes expressing CCR4 were homogenized through a 23 G needle. These membranes were then attached to WGA-coated Leadseeker SPA beads in a testing buffer (20 mM HEPES, 10 mM MgCl2, 100 mM NaCl, 0.05% BSA, 40 ug/ml saponin, adjusted to pH 7.4 with KOH 5M) to produce 3 μg/well final […] (FAC) membrane and 250 μg/well FAC bead solution. After 60 minutes of pre-coupling on ice, GDP was added to obtain 4.4 uM FAC. Then [35S]-GTPS, which was prepared in the testing buffer, was added into the bead/membrane solution to thereby obtain 0.33 nM FAC. […] The suspension of beads/membranes/[35S]-GTPγS/agonist was distributed into a white Greiner polypropylene 384-pore plate (45 μL/well), which contained 0.5 μl of compound. The final testing solution (45.5 μL) was sealed, centrifuged and incubated at room temperature for 3-6 hours. Then, the plate was read with Viewlux and the luminescence was plotted as the percentage of the maximum inhibitory response induced by IC100 standard antagonist.

[2] = Protocol: Solubility of compounds was determined according to the method established in the general instructions of Part II of Pharmacopoeia 2010 edition. […] The dissolution was observed within 30 minutes.
(§1) The dissolution was then observed within 30 minutes.
as §1

SMILES | absorption classification from Papp (Caco-2 cells; Caco-2, Papp>2×10^−6 = good-absorption drug) | Papp (apparent permeability coefficient) (Caco-2 cells; Caco-2 monolayer, direction not given, sodium) | IC50, times higher than that of compound 6 ([1]; relative to compound 6, same experimental conditions) | Solubility in water under 25° C. ± 2° C. ([2]; water, 25° C. ± 2° C., visual dissolution within 30 minutes) | absorption classification from Papp (Caco-2 cells; Caco-2) | Papp (apparent permeability coefficient) (Caco-2 cells; human, Caco-2) | Solubility in water under 25° C. ± 2° C. [2] | permeability, times higher than compound 6 (Caco-2 cells; Caco-2) | IC50, times higher than that of compound 6 [1] | solubility, times higher than that of compound 6 [2]
COc1cccc2c1c(NS(=O)(=O)c1ccc(Cl)s1)nn2Cc1cccc(CNC(=O)C(C)(C)O)c1.[Na] [Compound of formula II, N-[(3-{[3-{[(5-chloro-2-thienyl)sulfonyl]amino}-4-(methoxy)-1H-indazole-1-yl]methyl}phenyl)methyl]-2-hydroxy-2-methylpropionamide sodium] | easy-to-absorb compounds | 68.82 ×10^−6 | 6 times | 500 mg/mL |  |  |  |  |  | 
COc1cccc2c1c(NS(=O)(=O)c1ccc(Cl)s1)nn2Cc1cccc(CNC(=O)C(C)(C)O)c1 [Compound 6, N-[(3-{[3-{[(5-chloro-2-thienyl)sulfonyl]amino}-4-(methoxy)-1H-indazole-1-yl]methyl}phenyl)methyl]-2-hydroxy-2-methylpropionamide, reference compound] |  |  |  |  | difficult-to-absorb compound | 0.13 ×10^−6 | 0.02 mg/mL (≈ 36.4 µM) |  |  | 
COc1cccc2c1c(NS(=O)(=O)c1ccc(Cl)s1)nn2Cc1cccc(CNC(=O)C(C)(C)O)c1 [Compound of formula III, N-[(3-{[3-{[(5-chloro-2-thienyl)sulfonyl]amino}-4-(methoxy)-1H-indazole-1-yl]methyl}phenyl)methyl]-2-hydroxy-2-methylpropionamide potassium] |  |  |  |  | easy-to-absorb compounds |  | 40 mg/mL | 530-780 times | 210 times | 2000-25000 times
